Converted amounts (≈) assume the structure as drawn.
What follows are compounds tested on K. pneumoniae [CMCC(B)46117] (assay: Broth dilution antibacterial assay (MIC, MBC by subculture) against K. pneumoniae). Conditions: Klebsiella pneumoniae; broth dilution, 37°C, 18 h, triplicate.
Format: cell-based
Procedure: (§1) The conventional broth dilution assay was used to evaluate the antibacterial activities. Three clinical pathogens namely MRSA, P. aeruginosa [CMCC(B)10104], and K. pneumoniae [CMCC(B)46117] were cultured and left overnight to grow. Each pathogenic culture was then diluted in 0.9% saline to an inoculum density of 5 × 10^5 cfu by comparison with a McFarland standard. Tetracycline was dissolved in Mueller–Hinton broth with a starting concentration of 512 μg/mL and was used as positive control whereas methanol was used as negative control. A total of 125 μL of MHB was distributed into the 96-well plates. A total of 125 μL of the different samples were dispensed into well 1 and serially diluted across the plate. Ultimately, addition of 125 μL of the bacterial inoculum was performed and the plates were incubated at 37°C for 18 h. The bacteriostatic abilities of the compounds were noted as MICs which were done in triplicate. Five milligrams per milliliter of methanolic solution of 3-[4,5-dimethylthiazol-2-yl]-2,5-diphenyltetrazolium bromide (MTT; Lancaster) was used to detect bacterial growth by a change in color from yellow to blue ([Appendino et al., 2008]).
(§2) Ten microliters of broth with no visible growth were taken from the wells and sub-cultured on nutrient agar plates. The negative control consisted of nutrient agar and the inoculum which was then compared with the number of colonies on the agar. The bactericidal abilities of the compounds were noted as MBCs which was equal to the lowest concentration of the samples which killed 99.9% of the original inoculum ([Clinical and Laboratory Standards Institute, 2014]).
Work on `COc1cc(=O)oc(C=CC=CC=CC2(C)OC3(C)C(C)OC(C)(C2O)C3O)c1C` (stereo not shown) [Compound 5, 10Z-isocitreoviridinol] yielded an MIC of 64 µg/mL (≈ 153 µM).
Compound `COc1cc(=O)oc(C(O)C=CC=CC=C(C)C2OC3(C)C(C)OC2(C)C3O)c1C` (stereo not shown) [Compound 7, Penicillstressol] has an MIC of 64 µg/mL (≈ 153 µM).
In the case of `CN(C)[C@@H]1C(O)=C(C(N)=O)C(=O)[C@@]2(O)C(O)=C3C(=O)c4c(O)cccc4[C@@](C)(O)[C@H]3C[C@@H]12` [Tetracycline, reference compound], the MIC is reported as 64 µg/mL (≈ 144 µM).

Same assay, conditions: Klebsiella pneumoniae; lowest concentration killing 99.9% of original inoculum
With `COc1cc(=O)oc(C=CC=CC=CC(C)=CC2(C)OC(C)C(C)(O)C2O)c1C` (stereo not shown) [Compound 2, citreoviridin] the MBC was 128 µg/mL (≈ 318 µM).
`COc1cc(=O)oc(C(O)C=CC=CC=C(C)C2OC3(C)C(C)OC2(C)C3O)c1C` (stereo not shown) [Compound 8, Isopenicillstressol] gave an MBC of 128 µg/mL (≈ 306 µM).

Same assay, conditions: Klebsiella pneumoniae; lowest concentration killing 99.9% of original inoculum; read-out: MBC
With `COc1cc(=O)oc(C=CC=CC=CC2(C)OC3(C)C(C)OC(C)(C2O)C3O)c1C` (stereo not shown) [Compound 5, 10Z-isocitreoviridinol] the MBC was 128 µg/mL (≈ 306 µM).
`COc1cc(=O)oc(C(O)C=CC=CC=C(C)C2OC3(C)C(C)OC2(C)C3O)c1C` (stereo not shown) [Compound 7, Penicillstressol] showed an MBC of 128 µg/mL (≈ 306 µM).
`CN(C)[C@@H]1C(O)=C(C(N)=O)C(=O)[C@@]2(O)C(O)=C3C(=O)c4c(O)cccc4[C@@](C)(O)[C@H]3C[C@@H]12` [Tetracycline, reference compound] was tested, and the MBC was 128 µg/mL (≈ 288 µM).

Each compound was assayed on Human liver cell line LO2 (assay: Cytotoxicity assay (MTT)). Conditions: Homo sapiens; normal liver cell line LO2, MTT, triplicate; read-out: IC50.
Format: cell-based
Procedure: Human liver cell line LO2 was obtained from the Institute of Biochemistry and Cell Biology (Chinese Academy of Sciences). LO2 cells were maintained in RPMI 1640 containing 10% fetal bovine serum (FBS), 100 units/mL penicillin and 100 units/mL streptomycin. All the cells were grown in a humidified cell incubator with an atmosphere of 5% CO2 at 37°C and subcultured with 0.25% trypsin + 0.02% EDTA. MTT, dimethyl sulfoxide (DMSO), ribonuclease (RNase), propidium iodide (PI), Annexin V-FITC/PI kit were obtained from Sigma. RPMI 1640, DMEM, FBS were purchased from Gibco. Hoechst, trypsin, and the pan caspase inhibitor z-VAD-FMK were obtained from Beyotime Institute of Biotechnology. Compounds were dissolved in DMSO and diluted to the proper concentrations before use, with the concentration of DMSO kept below 0.1% in all assays. Cell viability was measured by the MTT method as previously described, with some modifications ([Jiang et al., 2013]). Briefly, cells were seeded in 96-well microtiter plates at a density of 5 × 10^3 cells/well for 24 h. After drug treatment for the indicated times, cells were incubated with MTT (0.5 mg/mL) for 4 h. The formazan precipitate was dissolved in 150 μL DMSO, and the absorbance was detected at 490 nm with a Sunrise microplate reader (Tecan Group Ltd.). DMSO (0.1%) was used as negative control for all assays. Each test was performed in triplicate.
For `COc1cc(=O)oc(C(O)C=CC=CC=C(C)C2OC3(C)C(C)OC2(C)C3O)c1C` (stereo not shown) [Compound 7, Penicillstressol], the IC50 was greater than 100 µg/mL.

Same assay, conditions: normal liver cell line LO2, MTT, triplicate
With `COc1cc(=O)oc(C(O)C=CC=CC=C(C)C2OC3(C)C(C)OC2(C)C3O)c1C` (stereo not shown) [Compound 8, Isopenicillstressol] the IC50 was “above 100 μg/mL”.

Each compound was assayed on methicillin resistant Staphylococcus aureus (MRSA) (assay: Broth dilution antibacterial assay (MIC, MBC by subculture) against MRSA). Conditions: Staphylococcus aureus.
Format: cell-based
Procedure: as §1, §2
`COc1cc(=O)oc(C=CC=CC=CC2(C)OC3(C)C(C)OC(C)(C2O)C3O)c1C` (stereo not shown) [Compound 5, 10Z-isocitreoviridinol] gave an MBC of 2 µg/mL (≈ 4.78 µM).
Work on `COc1cc(=O)oc(C(O)C=CC=CC=C(C)C2OC3(C)C(C)OC2(C)C3O)c1C` (stereo not shown) [Compound 7, Penicillstressol] yielded an MBC of 1 µg/mL (≈ 2.39 µM).
In the case of `CN(C)[C@@H]1C(O)=C(C(N)=O)C(=O)[C@@]2(O)C(O)=C3C(=O)c4c(O)cccc4[C@@](C)(O)[C@H]3C[C@@H]12` [Tetracycline, reference compound], the MBC is reported as 4 µg/mL (≈ 9 µM).

Same assay, conditions: Staphylococcus aureus, 18 h
With `COc1cc(=O)oc(C=CC=CC=CC2(C)OC3(C)C(C)OC(C)(C2O)C3O)c1C` (stereo not shown) [Compound 5, 10Z-isocitreoviridinol] the MIC was 1 µg/mL (≈ 2.39 µM).
For `COc1cc(=O)oc(C(O)C=CC=CC=C(C)C2OC3(C)C(C)OC2(C)C3O)c1C` (stereo not shown) [Compound 7, Penicillstressol], the MIC was 0.5 µg/mL (≈ 1.19 µM).
`CN(C)[C@@H]1C(O)=C(C(N)=O)C(=O)[C@@]2(O)C(O)=C3C(=O)c4c(O)cccc4[C@@](C)(O)[C@H]3C[C@@H]12` [Tetracycline, reference compound] was tested, and the MIC was 2 µg/mL (≈ 4.5 µM).

Same assay, conditions: broth dilution, 37°C, 18 h, triplicate
In the case of `CN(C)[C@@H]1C(O)=C(C(N)=O)C(=O)[C@@]2(O)C(O)=C3C(=O)c4c(O)cccc4[C@@](C)(O)[C@H]3C[C@@H]12` [Tetracycline, reference compound], the MIC is reported as “around 2 µg/mL”.

Same assay, conditions: lowest concentration killing 99.9% of original inoculum
Work on `COc1cc(=O)oc(C=CC=CC=CC(C)=CC2(C)OC(C)C(C)(O)C2O)c1C` (stereo not shown) [Compound 2, citreoviridin] yielded an MBC of 128 µg/mL (≈ 318 µM).
`COc1cc(=O)oc(C(O)C=CC=CC=C(C)C2OC3(C)C(C)OC2(C)C3O)c1C` (stereo not shown) [Compound 8, Isopenicillstressol] was tested, and the MBC was 1 µg/mL (≈ 2.39 µM).

What follows are compounds tested on P. aeruginosa [CMCC(B)10104] (assay: Broth dilution antibacterial assay (MIC, MBC by subculture) against P. aeruginosa). Conditions: Pseudomonas aeruginosa, 18 h, broth dilution, 37°C, 18 h, triplicate, read-out: MIC.
Format: cell-based
Procedure: as §1, §2
In the case of `COc1cc(=O)oc(C=CC=CC=CC2(C)OC3(C)C(C)OC(C)(C2O)C3O)c1C` (stereo not shown) [Compound 5, 10Z-isocitreoviridinol], the MIC is reported as 8 µg/mL (≈ 19.1 µM).
Compound `COc1cc(=O)oc(C(O)C=CC=CC=C(C)C2OC3(C)C(C)OC2(C)C3O)c1C` (stereo not shown) [Compound 7, Penicillstressol] has an MIC of 4 µg/mL (≈ 9.56 µM).
For `CN(C)[C@@H]1C(O)=C(C(N)=O)C(=O)[C@@]2(O)C(O)=C3C(=O)c4c(O)cccc4[C@@](C)(O)[C@H]3C[C@@H]12` [Tetracycline, reference compound], the MIC was 8 µg/mL (≈ 18 µM).

Same assay, conditions: Pseudomonas aeruginosa, lowest concentration killing 99.9% of original inoculum, read-out: MBC
With `COc1cc(=O)oc(C=CC=CC=CC2(C)OC3(C)C(C)OC(C)(C2O)C3O)c1C` (stereo not shown) [Compound 5, 10Z-isocitreoviridinol] the MBC was 16 µg/mL (≈ 38.2 µM).
Work on `COc1cc(=O)oc(C(O)C=CC=CC=C(C)C2OC3(C)C(C)OC2(C)C3O)c1C` (stereo not shown) [Compound 7, Penicillstressol] yielded an MBC of 8 µg/mL (≈ 19.1 µM).
With `CN(C)[C@@H]1C(O)=C(C(N)=O)C(=O)[C@@]2(O)C(O)=C3C(=O)c4c(O)cccc4[C@@](C)(O)[C@H]3C[C@@H]12` [Tetracycline, reference compound] the MBC was 16 µg/mL (≈ 36 µM).

Same assay, conditions: Pseudomonas aeruginosa; broth dilution, 37°C, 18 h, triplicate
With `COc1cc(=O)oc(C=CC=CC=CC(C)=CC2(C)OC(C)C(C)(O)C2O)c1C` (stereo not shown) [Compound 2, citreoviridin] the MIC was 8 µg/mL (≈ 19.9 µM).

Same assay, conditions: Pseudomonas aeruginosa; lowest concentration killing 99.9% of original inoculum
In the case of `COc1cc(=O)oc(C=CC=CC=CC(C)=CC2(C)OC(C)C(C)(O)C2O)c1C` (stereo not shown) [Compound 2, citreoviridin], the MBC is reported as 16 µg/mL (≈ 39.8 µM).
Compound `COc1cc(=O)oc(C(O)C=CC=CC=C(C)C2OC3(C)C(C)OC2(C)C3O)c1C` (stereo not shown) [Compound 8, Isopenicillstressol] has an MBC of 8 µg/mL (≈ 19.1 µM).
